According to US12115193B2, “Methods of using RARγ agonists for cancer treatment” (Io Therapeutics, Inc., priority 2021, dated 2024):

Legend:
EMT6 cells [1] = assay: EMT6 syngeneic mouse model of triple negative breast cancer (Example 3); assay type: in vivo; conditions: 21 daily oral doses 10 mg/kg; at the end of the study
Method: The RARγ agonists tazarotenic acid and GA2E were evaluated in the EMT6 syngeneic mouse model of breast cancer. 5×10^5 EMT6 cells were injected into the mammary fat pad of immunocompetent female Balb/c mice. When the tumors reached an average volume of 50-150 mm^3, mice were matched by tumor size into control or treatment groups (n=10-11).
The mice were treated with 21 daily oral doses 10 mg/kg of 1 mg/ml tazarotenic acid or GA2E, or vehicle control, starting on Day 0. Tumor volume was measured, and the mice weighed, on days 0, 1, 3, 6, 8, 10, 13, 15, 17, 20, and 21.

TIL in EMT6 tumors = assay: Flow cytometry of excised EMT6 tumors (Example 4); assay type: in vivo, mouse
Source text: At the end of the study of Example 3, the tumors were excised, the cells disaggregated and dispersed without use of proteases, stained with various agents, and subjected to flow cytometry. FIG. 5A-B present the results of the flow cytometry both as a percentage of cells and as the number of cells per tumor. […] Of these live cells, a substantial proportion were leukocytes (FIG. 5A, “CD45” panels). […] The majority of the T cells were CD4+(FIG. 5A, “CD4” panels), expected to be predominantly helper cells. Of the CD4^+ cells, only small proportions were T memory cells (expected to be predominantly TH1 memory cells) based on intracellular staining for IFNγ (FIG. 5B, “TH IFGγ” panels), TH17 cells based in intracellular staining for IL-17 (FIG. 5B, “TH IL17” panels), or Treg cell based on staining for CD25 and FoxP3 (FIG. 5B, “Treg” panels). About 25-30% of the T cells were CD8^+ (FIG. 5B, “CD8 T” panels), expected to be predominantly cytotoxic cells.

PBMC = assay: CMV recall antigen-stimulated PBMC: IFNγ production and CFSE proliferation; assay type: cell-based; conditions: four days, vs vehicle control
Method: Peripheral blood mononuclear cells (PBMC) from a cytomegalovirus (CMV)-positive donor were labeled with carboxyfluorescein succinimidyl ester (CFSE) and stimulated with CMV recall antigens at […]. The PBMC were then treated with one of three difference RARγ selective agonists or vehicle (DMSO) control and incubated at 37° C., 5% CO2 for four days. Culture supernatant was harvested and assayed for IFNγ production and the PBMC evaluated for proliferation by flow cytometry for CFSE dilution.
CFSE is a fluorescent reactive cell membrane permeable dye. After it is taken up, CFSE covalently modifies proteins and is retained in cells for long periods of time. The CFSE-modified proteins are generally evenly divided between daughter cells at each division so that fluorescent intensity of the cells falls by have at each division. Thus diminution of the dye's fluorescent signal can be used as a measure of proliferation.

JIMT-1 cells = assay: NSG-B2M mice implanted with JIMT-1 Her2+ breast cancer cells and human PBMC; assay type: in vivo
Method: The NSG-B2M mouse model is a severely immunocompromised animal, combining the lesions non-obese diabetic (NOD), severe combined immunodeficiency (SCID), IL-2 receptor γ null, and β2-microglobulin null. Human tumor cells readily engraft in this model and cells from the human immune system can also be engrafted in order to study various modes of cancer immunotherapy. Thus, one can model a human immune response to a human tumor in this system. Female NSG-B2M mice were injected in the mammary fat pad with 5×10^6 JIMT-1 cells (human breast carcinoma cell line) suspended in 0.1 mL of phosphate-buffered saline (PBS) with an equal volume of Matrigel®. Once tumors reached a volume of 100-200 mm^3, the mice were implanted with 1×10^7 human PBMC by subcutaneous injection into the right flank (pre-randomization). PBMC were obtained from two donors and distributed evenly between groups. When tumors reached an average tumor volume of 200-250 mm^3 (about 3 days post-PBMC injection) animals were matched by tumor volume into treatment and control groups, and dosing initiated. This first day of dosing was defined as Day 0. The mice were administered a daily oral dose of 10 mL/kg of 10% dimethyl sulfoxide (DMSO) in PBS as vehicle control or 10 mg/kg of GA2E dissolved in 10% DMSO in PBS as the treatment.
Tumor volume was measured twice weekly and on the day a study endpoint was reached. The mice were also weighed twice weekly and on the day a study endpoint was reached.
Study endpoint was defined as when the mean tumor volume of the control group (uncensored) reaches 1500 mm^3. If this occurs before Day 28, treatment groups and individual mice were permitted to be dosed and measured up to Day 28.

EMT6 cells [2] = assay: EMT6 in vitro culture viability, Cell Titer Glo Assay; assay type: cell-based, mouse; conditions: 5 days
Method: EMT6 cells were cultured in vitro for 5 days the presence of a multiple concentrations of the RARγ agonists GA1E, GA2E, and GA3Ep and viability assessed by the Cell Titer Glo Assay® (Promega).

TIL in LLC tumors = assay: Flow cytometry of LLC tumors, Day 13; assay type: in vivo, mouse
Source text: The mice were sacrificed on Day 13 of the study and the tumors collected and analyzed by flow cytometry. Statistical analysis was by ordinary one-way ANOVA with Tukey's test for significance comparison between groups. Gates were set to identify single cells by forward light scatter, live cells as single cells based on side scatter and staining with the vital stain Fixable Viability Dye eFluor™ 780, white blood cells from live cells based on side scatter and staining with anti-CD45, lymphocytes from white blood cells based on side and forward light scatter, and total T lymphocytes (tot T) from lymphocytes based on side scatter and staining with anti-CD3. Total T lymphocytes were divided into CD4^+ (TH) and CD8^+ (TC) lymphocytes based on staining with and anti-CD4 and CD8 antibodies and subsets assessed (FIG. 20). The following observations were made on a per-mg of tumor tissue basis.

[3] = 10 mg/kg oral daily, end of study

CC1(C)CCC(C)(C)c2cc(C(/C=C/c3ccc(C(=O)O)cc3F)=N/O)ccc21 [GA2E, 3-fluoro-4-((1E,3E)-3-(hydroxyimino)-3-(5,5,8,8-tetramethyl-5,6,7,8-tetrahydronaphthalen-2-yl)prop-1-en-1-yl)benzoic acid]
tumor growth inhibition (EMT6 cells [1]): 63%
T cells (anti-CD3) as mean percentage of the leukocytes in the tumor (TIL in EMT6 tumors; [3]): about 30%
number of TIL (TIL in EMT6 tumors; [3]): increased
proportion of CD8+ T cells that were memory cells (intracellular IFNγ) (TIL in EMT6 tumors; vs vehicle control, did not achieve statistical significance): numerically increased
IFNγ production (PBMC; 0.1 to 1000 nM): increased IFNγ production substantially
Proliferation of CD8+ cells (CFSE dilution) (PBMC; increase small): increased
tumor volume after drug holiday started on Day 13 (JIMT-1 cells; 10 mg/kg daily oral until Day 12, then drug holiday): tumor shrinkage subsequent to Day 19
tumor growth while the mice were receiving drug (JIMT-1 cells; 10 mg/kg daily oral, Day 0 to Day 12): No impact on tumor growth
weight loss (JIMT-1 cells; 10 mg/kg daily oral, by Day 12): > 10%
effect on viability as concentrations exceeded 10 μM (EMT6 cells [2]): rapidly became toxic
effect on viability at concentrations below 1 μM (EMT6 cells [2]): no effect
IC50 (EMT6 cells [2]; Mus musculus, 120 h): 19 µM
proportion of Treg cells as a percentage of total T cell (TIL in LLC tumors; P<0.001): significantly reduced
concentration of T helper cells (TIL in LLC tumors; per mg tumor, 10 and 25 mg/kg): did not change significantly
concentration of T regulatory cells (TIL in LLC tumors; per mg tumor, 10 and 25 mg/kg): did not change significantly
concentration of central memory CD8+ T cells (TIL in LLC tumors; per mg tumor, 10 and 25 mg/kg): did not change significantly
concentration of naïve CD8+ T cells (TIL in LLC tumors; per mg tumor, 10 and 25 mg/kg): did not change significantly
concentration of total CD4+ T cells (TIL in LLC tumors; per mg tumor, 10 and 25 mg/kg): did not change significantly
concentration of effector memory CD8+ T cells (TIL in LLC tumors; per mg tumor, P<0.01 for the 25 mg/kg dosage): increased
concentration of cytotoxic cells (CD8, intracellular IFN-γ) (TIL in LLC tumors; per mg tumor, P<0.05 for the 25 mg/kg dosage): increased
concentration of total CD8+ lymphocytes in tumor (TIL in LLC tumors; per mg tumor, vs controls, P<0.05 for the 25 mg/kg dosage): increased
